Each structure is given as a SMILES string. Values after ≈ are worked out from the molar mass of the structure shown. “Also recorded” adds a separate entry of the source.

Here are results for 3 molecules from patent US10654820B2, “Crystal form of tasimelteon” (ZHEJIANG JINGXIN PHARMACEUTICAL CO., LTD., priority 2016, dated 2020).

The nature of series [1]: Thermogravimetric analysis (TGA), thermal stability. The format is physicochemical. The following applies: for thermal stability: result in words. The method, then:
Thermogravimetric Analysis (TGA)
TGA was performed on a TA instruments SDT Q600 thermogravimetric analyzer. The samples were heated over the temperature range room temperature of 30-365° C. at a constant heating rate of 10° C./min. The samples were purged with a stream of flowing nitrogen at 120 ml/min throughout the experiment.

The nature of series [2]: Intrinsic dissolution studies in water. The format is physicochemical. The following applies: 37° C., 150 r.p.m., compressed disk. On the procedure: Example 23 Intrinsic Dissolution Studies
200 mg of crystal form I or crystal form II was taken in the intrinsic attachment and compressed to a 1.33 cm^2 and 0.1 cm thick of disk using a hydraulic press at a pressure of 9 MPa for 60 s. The intrinsic attachment was placed in a jar of 100 mL of water to 37° C. and rotated at 150 r.p.m. 1 milliliter of the aliquot each is collected at specific time intervals and blank medium of the same volume and temperature is added, and the absorbance at max (281 nm) is measured, and the cumulative dissolution rate is calculated to plot the concentration-time standard curves of the respective compounds.

Series [3] is described as follows: Solubility in water at 37° C. (equilibrium solubility, 72 hours, absorbance at 281 nm). The format is physicochemical. The following applies: balanced for 72 hours. On the procedure:
Example 22 Solubility in Water at 37° C.
Move 25 ml water into a 50 ml eggplant bottle separately, add crystal form I and crystal form II Tasimelteon separately, stir in a constant temperature oil bath to balance for 72 hours, and then filtrate by 0.45 microporous membrane. The filtrate is diluted by water. The water solubilities of crystal form I and crystal form II at 37° C. were determined by calculating each sample concentration of its saturated solution determined through measuring absorbance at λmax (281 nm). Standard curve method is used to calculate the equilibrium solubility.

Series [4] deals with totally blind subjects diagnosed with non-24. The following applies: cited from earlier work.

As for `CCC(=O)NC[C@@H]1C[C@H]1c1cccc2c1CCO2` [crystal form II, (1R-2R)—N-[2-(2,3-dihydrobenzofuran-4-yl)cyclopropylmethyl]propanamide], in series [1] (heating rate of 10° C./min, nitrogen), the “decomposition temperature (TGA)” value was “approximately 200 °C”. Besides, the thermal stability result in series [1] is listed as “good thermal stability”. In addition, the intrinsic dissolution rate result in series [2] (FIG. 9) is recorded as “high in water, especially for crystal form II compared to crystal form I; also recorded: good dissolution rate, especially for crystal form II compared to form I”. In series [3], this molecule returned a water solubility of 104 µg/mL (≈ 424 µM).
For `CCC(=O)NC[C@@H]1C[C@H]1c1cccc2c1CCO2` [Tasimelteon, (1R-2R)—N-[2-(2,3-dihydrobenzofuran-4-yl)cyclopropylmethyl]propanamide], the “proportion of individuals becoming entrained to the 24-hour cycle” value in series [4] (physiologic monitoring, compared with placebo) was “higher proportion of individuals becoming entrained to the 24-hour cycle compared with placebo”. Besides, the “efficacy on nighttime wakefulness and daytime napping” value in series [4] (totally blind subjects diagnosed with non-24) is “reducing both nighttime wakefulness and daytime napping”.
For `CCC(=O)NC[C@@H]1C[C@H]1c1cccc2c1CCO2` [crystal form I, (1R-2R)—N-[2-(2,3-dihydrobenzofuran-4-yl)cyclopropylmethyl]propanamide], in series [1], the thermal stability entry is reported as “good thermal stability”. Moreover, the intrinsic dissolution rate result is “high” in series [2] (FIG. 9) and “good dissolution rate” in series [2] (FIG. 9, listed as form I). Besides, the concentration in solution in series [3] (37 °C, thermodynamic from solid) (solubility at 72 h) came to 81 µg/mL (≈ 330 µM).

As usually defined, the solubility is the concentration that dissolves in the medium under given conditions.
